Test results: US12129258B2, “Diaryl macrocyclic compound and pharmaceutical composition, and use thereof” (PrimeGene (Beijing) Co., Ltd., priority 2018, dated 2024)
Where two headings read alike, the source gives them in different places.

Assays:
TRKA = TRKA (Homo sapiens (Human), UniProt P04629); experiment: Mobility shift assay, TRKA kinase; assay type: biochemical; conditions: ATP 47.8 μM
Source text: (§1) The operation is described as follows:
(§2) Conversion %_Sample: conversion rate of sample;

ROS1 = ROS1 (Homo sapiens (Human), UniProt P08922); experiment: Mobility shift assay, ROS1 kinase; assay type: biochemical; conditions: ATP 26.7 μM
Chain of ROS1 (P08922 28-2347): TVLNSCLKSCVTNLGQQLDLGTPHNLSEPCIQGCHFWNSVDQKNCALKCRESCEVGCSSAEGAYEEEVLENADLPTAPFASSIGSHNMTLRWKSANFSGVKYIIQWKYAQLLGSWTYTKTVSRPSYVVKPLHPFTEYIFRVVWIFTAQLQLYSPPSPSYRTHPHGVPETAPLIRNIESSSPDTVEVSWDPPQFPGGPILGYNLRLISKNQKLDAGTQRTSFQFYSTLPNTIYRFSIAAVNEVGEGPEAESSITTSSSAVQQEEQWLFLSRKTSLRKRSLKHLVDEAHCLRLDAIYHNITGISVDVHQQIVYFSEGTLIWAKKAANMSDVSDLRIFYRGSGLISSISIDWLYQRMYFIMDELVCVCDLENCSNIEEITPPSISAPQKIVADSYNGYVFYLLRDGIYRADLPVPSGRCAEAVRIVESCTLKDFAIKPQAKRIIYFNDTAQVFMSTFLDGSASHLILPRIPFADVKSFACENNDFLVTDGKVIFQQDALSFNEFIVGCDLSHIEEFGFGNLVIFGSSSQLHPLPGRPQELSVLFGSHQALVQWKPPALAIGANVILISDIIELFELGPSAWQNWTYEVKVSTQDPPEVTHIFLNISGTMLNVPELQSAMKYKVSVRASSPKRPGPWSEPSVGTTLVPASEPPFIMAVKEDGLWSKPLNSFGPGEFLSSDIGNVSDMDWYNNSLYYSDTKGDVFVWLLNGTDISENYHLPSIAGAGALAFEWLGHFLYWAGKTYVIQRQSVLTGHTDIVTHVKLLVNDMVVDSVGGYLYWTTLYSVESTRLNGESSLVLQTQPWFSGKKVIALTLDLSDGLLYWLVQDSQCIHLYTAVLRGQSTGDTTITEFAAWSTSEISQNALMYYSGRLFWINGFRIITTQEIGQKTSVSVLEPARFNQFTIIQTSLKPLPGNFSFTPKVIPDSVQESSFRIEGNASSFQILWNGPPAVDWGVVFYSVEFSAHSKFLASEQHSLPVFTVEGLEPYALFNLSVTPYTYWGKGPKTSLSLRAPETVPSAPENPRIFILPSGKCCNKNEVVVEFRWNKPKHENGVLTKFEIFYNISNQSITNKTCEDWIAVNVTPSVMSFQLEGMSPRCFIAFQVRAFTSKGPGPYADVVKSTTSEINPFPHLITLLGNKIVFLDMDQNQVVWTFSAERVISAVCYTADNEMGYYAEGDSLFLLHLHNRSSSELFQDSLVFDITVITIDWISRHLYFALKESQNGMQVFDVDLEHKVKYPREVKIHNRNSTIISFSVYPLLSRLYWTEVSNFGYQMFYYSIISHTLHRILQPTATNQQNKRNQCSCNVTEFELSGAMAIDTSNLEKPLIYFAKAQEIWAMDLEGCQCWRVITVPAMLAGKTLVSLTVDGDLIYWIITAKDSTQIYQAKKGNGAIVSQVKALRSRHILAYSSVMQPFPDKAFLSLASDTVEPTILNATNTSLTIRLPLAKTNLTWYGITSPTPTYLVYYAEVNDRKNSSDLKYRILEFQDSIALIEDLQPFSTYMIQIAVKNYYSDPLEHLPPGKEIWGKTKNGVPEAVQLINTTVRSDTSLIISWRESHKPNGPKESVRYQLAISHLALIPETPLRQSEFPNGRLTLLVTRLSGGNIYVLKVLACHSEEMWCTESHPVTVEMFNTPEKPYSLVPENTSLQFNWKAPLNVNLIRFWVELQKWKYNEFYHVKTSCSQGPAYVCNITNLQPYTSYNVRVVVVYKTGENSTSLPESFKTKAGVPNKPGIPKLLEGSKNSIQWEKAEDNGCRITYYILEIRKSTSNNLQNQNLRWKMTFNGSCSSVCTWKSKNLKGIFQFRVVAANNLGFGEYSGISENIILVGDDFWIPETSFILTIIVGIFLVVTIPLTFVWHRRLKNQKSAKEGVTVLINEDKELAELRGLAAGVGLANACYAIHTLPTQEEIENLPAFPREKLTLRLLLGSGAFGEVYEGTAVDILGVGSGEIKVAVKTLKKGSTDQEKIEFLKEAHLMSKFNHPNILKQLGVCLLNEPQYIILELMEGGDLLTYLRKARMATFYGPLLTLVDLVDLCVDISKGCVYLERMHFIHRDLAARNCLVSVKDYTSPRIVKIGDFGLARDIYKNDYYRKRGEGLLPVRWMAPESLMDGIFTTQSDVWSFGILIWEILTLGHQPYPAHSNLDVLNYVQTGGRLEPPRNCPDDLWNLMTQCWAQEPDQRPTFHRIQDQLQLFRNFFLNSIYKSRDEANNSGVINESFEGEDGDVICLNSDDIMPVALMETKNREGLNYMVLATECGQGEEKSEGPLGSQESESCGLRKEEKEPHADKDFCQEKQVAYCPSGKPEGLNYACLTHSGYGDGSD
Source text: as §1, §2

ROS1-G2032R = ROS1-G2032R (Homo sapiens (Human), UniProt P08922, G2032R); experiment: LanceUltra kinase activity assay, ROS1-G2032R; assay type: biochemical; conditions: 2.6 μM ATP
Chain of ROS1-G2032R (P08922 28-2347 G2032R): as the sequence (P08922 28-2347) above, with G2005R counted along it
Procedure: 5 μl 40 mM EDTA was used to stop the reaction. Then 2 nM Europium-anti-phosphotyrosine (PT66) (PerkinElmer, Cat. AD0069) was added and incubated at room temperature for 60 mins. […] The IC50 values of the compounds were calculated using XLFIT5 (IDBS) software.

Ba/F3 LMNA-NTRK1-WT = experiment: Cell proliferation inhibition (CellTiter-Glo), Ba/F3 LMNA-NTRK1-WT; assay type: cell-based; conditions: Mus musculus, BaF3, 72 h
Source text: (§3) 4. Inhibitory Effect of Compounds on the Proliferation of TRK Fusion and Mutant Stable Cell Lines (IC50)
(§4) Six cell lines including Ba/F3 LMNA-NTRK1-WT, Ba/F3 LMNA-NTRK1-G595R, Ba/F3 ETV6-NTRK2-WT, Ba/F3 ETV6-NTRK2-G639R, Ba/F3 ETV6-NTRK2-G639R and Ba/F3 ETV6-NTRK3-G623R were used in this experiment.
(§5) The operation is described briefly as follows:
(§6) The cells in logarithmic growth phase were harvested to ensure that the cell viability was above 90%. […] Then each well containing the cells of the 96-well plate was added the compound solutions, 3 wells for each compound solution, and continued to incubate for another 72 hrs. Then CellTiter-Glo® kit (Promega, Cat #G7572) was used to do the detection. First, the CTG reagent was melted and the cell plate was balanced to room temperature. The same volume of CTG solution was added into each well and vibrated on the shaker for 5 minutes to lyse the cells. The cell plate was kept at room temperature for 20 minutes to stabilize the luminescent signal. […] Cell survival rate (%)=(1umdrug−1ummedium)/(1umcell−lummedium)×100%

Ba/F3 LMNA-NTRK1-G595R = experiment: Cell proliferation inhibition (CellTiter-Glo), Ba/F3 LMNA-NTRK1-G595R; assay type: cell-based; conditions: Mus musculus, BaF3, 72 h
Source text: as §3, §4, §5, §6

Ba/F3 ETV6-NTRK2-WT = experiment: Cell proliferation inhibition (CellTiter-Glo), Ba/F3 ETV6-NTRK2-WT; assay type: cell-based; conditions: Mus musculus, BaF3, 72 h, 72 hrs, read-out: IC50 proliferation Ba/F3 ETV6-NTRK2-WT
Procedure: as §3
Six cell lines including Ba/F3 LMNA-NTRK1-WT, Ba/F3 LMNA-NTRK1-G595R, Ba/F3 ETV6-NTRK2-WT, Ba/F3 ETV6-NTRK2-G639R, Ba/F3 ETV6-NTRK2-G639R and Ba/F3 ETV6-NTRK3-G623R were used in this experiment. For the six cell lines, the maximum test concentration of the compound was 1 μM, 1 μM, 10 μM, […], 1 μM and 10 μM, were 3.16-fold gradient diluted to obtain 9 samples.
as §5
The cells in logarithmic growth phase were harvested to ensure that the cell viability was above 90%. 3000 cell/well were seeded in 96-well plate (Corning, Cat #3603). The cells were incubated overnight with 5% CO2, 95% humidity at 37° C. Then each well containing the cells of the 96-well plate was added the compound solutions, 3 wells for each compound solution, and continued to incubate for another 72 hrs. Then CellTiter-Glo® kit (Promega, Cat #G7572) was used to do the detection. First, the CTG reagent was melted and the cell plate was balanced to room temperature. The same volume of CTG solution was added into each well and vibrated on the shaker for 5 minutes to lyse the cells. The cell plate was kept at room temperature for 20 minutes to stabilize the luminescent signal. The luminescent value was collected by SpectraMax microplate detector (MD, 2104-0010A). […] Cell survival rate (%)=(1umdrug−1ummedium)/(1umcell−lummedium)×100%

Ba/F3 ETV6-NTRK3-WT = experiment: Cell proliferation inhibition (CellTiter-Glo), Ba/F3 ETV6-NTRK3-WT; assay type: cell-based; conditions: Mus musculus, BaF3, 72 h, 72 hrs, read-out: IC50 proliferation Ba/F3 ETV6-NTRK3-WT
Ba/F3 LMNA-NTRK3-G623R = experiment: Cell proliferation inhibition (CellTiter-Glo), Ba/F3 LMNA-NTRK3-G623R; assay type: cell-based; conditions: Mus musculus, BaF3, 72 h, 72 hrs, read-out: IC50 proliferation Ba/F3 LMNA-NTRK3-G623R
[1] = Pharmacokinetic analysis in rats; assay type: in vivo, Male SD rats; conditions: rat
Procedure: 6. Pharmacokinetic Analysis
Male SD rats were grouped, each group having 3 rats. […] Animals were fasted overnight from 10 hours before administration to 4 hours after administration. Blood samples were collected at 0.25, 0.5, 1, 2, 4, 8 and 24 hours after administration in the oral group and at 0.083, 0.25, 0.5, 1, 2, 4, 8 and 24 hours after injection in the intravenous group. After isoflurane anesthesia, 0.3 ml whole blood collected through the fundus vein plexus was put into the heparin anticoagulant tube. The sample was centrifuged at 4° C. at 4000 rpm for 5 min. The plasma was transferred into the centrifuge tube and stored at −80° C. until analysis. The extract from the plasma extracted by protein precipitation was analyzed by LC/MS/MS.

Chain of TRKA (P04629 33-796): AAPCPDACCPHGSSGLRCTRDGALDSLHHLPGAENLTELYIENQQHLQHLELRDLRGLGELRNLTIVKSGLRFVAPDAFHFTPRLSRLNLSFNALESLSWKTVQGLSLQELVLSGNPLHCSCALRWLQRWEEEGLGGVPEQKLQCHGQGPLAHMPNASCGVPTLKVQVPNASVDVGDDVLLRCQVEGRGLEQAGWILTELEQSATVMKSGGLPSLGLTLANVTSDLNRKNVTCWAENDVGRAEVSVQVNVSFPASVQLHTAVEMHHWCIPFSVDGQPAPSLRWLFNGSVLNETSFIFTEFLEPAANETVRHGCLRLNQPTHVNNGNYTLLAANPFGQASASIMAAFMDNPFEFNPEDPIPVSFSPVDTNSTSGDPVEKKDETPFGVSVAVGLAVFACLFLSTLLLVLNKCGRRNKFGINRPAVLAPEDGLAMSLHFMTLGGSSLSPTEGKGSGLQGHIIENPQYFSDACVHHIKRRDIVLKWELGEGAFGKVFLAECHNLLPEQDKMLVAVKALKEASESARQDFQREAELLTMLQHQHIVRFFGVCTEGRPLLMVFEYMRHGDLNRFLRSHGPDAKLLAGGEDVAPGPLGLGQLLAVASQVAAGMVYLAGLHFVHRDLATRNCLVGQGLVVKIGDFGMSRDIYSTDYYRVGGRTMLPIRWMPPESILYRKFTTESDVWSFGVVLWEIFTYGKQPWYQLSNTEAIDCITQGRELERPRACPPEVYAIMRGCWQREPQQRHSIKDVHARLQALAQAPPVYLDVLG

C[C@H]1COC(=O)c2cnn3ccc(nc23)N[C@H](C)c2cc(F)ccc2O1 [Example 1, (1^3E,1^4E,3R,6S)-4^5-fluoro-3,6-dimethyl-5,8-dioxa-2-aza-1(5,3)-pyrazolo[1,5-a]pyrimidina-4(1,2)-benzenacyclononaphan-9-one]
IC50 (TRKA): 0.42 nM
IC50 (ROS1): 0.33 nM
IC50 (ROS1-G2032R): 0.36 nM
IC50 (Ba/F3 LMNA-NTRK1-WT; test batch marked #): 1.04 nM
IC50 (Ba/F3 LMNA-NTRK1-WT; test batch marked *): 5.4 nM
IC50 (Ba/F3 LMNA-NTRK1-G595R; test batch marked #): 1.34 nM
IC50 (Ba/F3 LMNA-NTRK1-G595R; test batch marked *): 7.8 nM
IC50 (Ba/F3 ETV6-NTRK2-WT; test batch marked #): 4.24 nM
IC50 (Ba/F3 ETV6-NTRK2-WT; test batch marked *): 7.8 nM
IC50 (Ba/F3 ETV6-NTRK3-WT; test batch marked #): 1.04 nM
IC50 (Ba/F3 ETV6-NTRK3-WT; test batch marked *): 0.2 nM
IC50 (Ba/F3 LMNA-NTRK3-G623R; test batch marked #): 8.34 nM
IC50 (Ba/F3 LMNA-NTRK3-G623R; test batch marked *): 8.4 nM
AUC(0-inf) ([1]; male, SD, plasma, IV, 1 mg/kg): 621 ng·h/mL
C0 ([1]; male, SD, plasma, IV, 1 mg/kg): 217 ng/mL
half-life ([1]; male, SD, plasma, IV, 1 mg/kg): 1.7 h
clearance ([1]; male, SD, plasma, IV, 1 mg/kg, read-out: C1 (clearance)): 27.2 mL/min/kg
Vd ([1]; male, SD, plasma, IV, 1 mg/kg, read-out: Vdss): 4.26 L/kg
AUC(0-inf) ([1]; male, SD, plasma, PO, 5 mg/kg): 3550 ng·h/mL
Cmax ([1]; male, SD, plasma, PO, 5 mg/kg): 952 ng/mL
Tmax ([1]; male, SD, plasma, PO, 5 mg/kg): 0.667 h
half-life ([1]; male, SD, plasma, PO, 5 mg/kg): 1.84 h
bioavailability ([1]; male, SD, plasma, po, 5 mg/kg, PO, 5 mg/kg, read-out: F (oral bioavailability)): 100%
F (oral bioavailability) ([1]; PO, 5 mg/kg): 114%
PK performance compared with TPX-0005 ([1]; oral): better oral pharmacokinetic performance than that of TPX-0005
